Read-outs that look alike come from different tables or passages of the source.
What was measured:
HCT116 cells = test: MTT viability assay, HCT116 cells; type: cell-based, human; details: Homo sapiens, HCT-116; MTT, 48 h incubation, mean, n = 3; read-out: IC50 against HCT116 cells
Experimental: (§1) The anticancer activities of the exemplary compounds listed in Example 1 were tested against human cervix Hela cells, mammary breast cancer MDA-MB-231 cells, human hepatocellular HepG2 cells, human colorectal HCT116 cells, mammary ductal T47D cells, non-cancerous NIH3T3 cells, dog's kidney MDCK cells, and mouse brain bEnd.3 cells, respectively.

NIH3T3 cells = test: MTT viability assay, non-cancerous NIH3T3 cells; type: cell-based; details: Mus musculus, NIH3T3
Experimental: as §1

MDA-MB-231 cells = test: MTT viability assay, MDA-MB-231 cells; type: cell-based; details: for IC50: Homo sapiens
Experimental: as §1

[1] = MTT, 48 h incubation, mean, n = 3, read-out: IC50 against NIH3T3 cells
[2] = MDA-MB-231, 48 h, MTT, 48 h incubation, mean, n = 3, read-out: IC50 against MDA-MB-231 cells

IC50 (MDA-MB-231 cells; [2]) [µM] | SMILES | IC50 (NIH3T3 cells; [1]) [µM] | further results
19.2 | C[n+]1ccc(CNC(=O)OC2CCC3(CC2)OOC2(CCC(C(C)(C)C)CC2)OO3)cc1 (stereo not shown) [Compound 50, 4-(((((12-(tert-butyl)-7,8,15,16-tetraoxadispiro[5.2.59.26]hexadecan-3-yl)oxy)carbonyl)amino)methyl)-1-methylpyridin-1-ium iodide] | 44.9 | IC50 (HCT116 cells): > 25 µM
8.8 | C#CCCNC(=O)OCC(C)(C)C1CCC2(CC1)OOC1(CCC(OC(=O)NCCC[N+](C)(Cc3ccccc3)Cc3ccccc3)CC1)OO2 [Compound alk-L-48, N,N-dibenzyl-3-((((12-(1-((but-3-yn-1-ylcarbamoyl)oxy)-2-methylpropan-2-yl)-7,8,15,16-tetraoxadispiro[5.2.59.26]hexadecan-3-yl)oxy)carbonyl)amino)-N-methylpro pan-1-aminium iodide] | 18.2 | –
24.5 | C#CCCNC(=O)OCC(C)(C)C1CCC2(CC1)OOC1(CCC(O)CC1)OO2 [Compound alk-L-37, 2-(12-hydroxy-7,8,15,16-tetraoxadispiro[5.2.59.26]hexadecan-3-yl)-2-methylpropyl but-3-yn-1-ylcarbamate] | – | –
> 50 | OC1CCC2(CC1)OOC1(CCCCC1)OO2 [Compound 59, 7,8,15,16-tetraoxadispiro[5.2.59.26]hexadecan-3-ol] | – | –
1.9 | O=C(NCCC[P+](c1ccccc1)(c1ccccc1)c1ccccc1)OC1CCC2(CC1)OOC1(CCCCC1)OO2 [Compound 59b, (3-((((7,8,15,16-tetraoxadispiro[5.2.59.26]hexadecan-3-yl)oxy)carbonyl)amino)propyl)triphenylphosphonium bromide] | – | –
2.9 | CC(C)(C)C1CCC2(CC1)OOC1(CCC(OC(=O)NCCC[N+](Cc3ccccc3)(Cc3ccccc3)Cc3ccccc3)CC1)OO2 (stereo not shown) [Compound 57, N,N,N-tribenzyl-3-((((12-(tert-butyl)-7,8,15,16-tetraoxadispiro[5.2.59.26]hexadecan-3-yl)oxy)carbonyl)amino)propan-1-aminium iodide] | 9.8 | –
2.3 | C#CCCN(CCC[P+](c1ccccc1)(c1ccccc1)c1ccccc1)C(=O)OC1CCC2(CC1)OOC1(CCC(C(C)(C)C)CC1)OO2 (stereo not shown) [Compound alk-R-37b, (3-(but-3-yn-1-yl(((12-(tert-butyl)-7,8,15,16-tetraoxadispiro[5.2.59.26]hexadecan-3-yl)oxy)carbonyl)amino)propyl)triphenylphosphonium bromide] | 9.7 | –
– | C#CCCN(CCC[N+](C)(Cc1ccccc1)Cc1ccccc1)C(=O)OC1CCC2(CC1)OOC1(CCC(C(C)(C)C)CC1)OO2.[I-] (stereo not shown) [Compound alk-R-48, N,N-dibenzyl-3-(but-3-yn-1-yl(((12-(tert-butyl)-7,8,15,16-tetraoxadispiro[5.2.59.26]hexadecan-3-yl)oxy)carbonyl)amino)-N-methylpropan-1-aminium iodide] | 10.8 | IC50 (NIH3T3 cells; Table 12b, read-out: IC50 NIH3T3): 10.8 ± 3.7 µM; IC50 (MDA-MB-231 cells; MDA-MB-231, Table 12b, read-out: IC50 MDA-MB-231): 0.8 ± 0.2 µM; selectivity index (IC50 of NIH3T3 divided by IC50 on MDA-MB-231) (MDA-MB-231 cells; Table 12b, value in bracket): (>13)
2.1 | C#CCCNC(=O)OCC(C)(C)C1CCC2(CC1)OOC1(CCC(OC(=O)NCCC[P+](c3ccccc3)(c3ccccc3)c3ccccc3)CC1)OO2 [Compound alk-L-37b, (3-((((12-(1-((but-3-yn-1-ylcarbamoyl)oxy)-2-methylpropan-2-yl)-7,8,15,16-tetraoxadispiro[5.2.59.26]hexadecan-3-yl)oxy)carbonyl)amino)propyl)triphenylphosphonium bromide] | 12.9 | –
10.4 | C[N+](CCCNC(=O)OC1CCC2(CC1)OOC1(CCCCC1)OO2)(Cc1ccccc1)Cc1ccccc1 [Compound 59a, 3-((((7,8,15,16-tetraoxadispiro[5.2.59.26]hexadecan-3-yl)oxy)carbonyl)amino)-N,N-dibenzyl-N-methylpropan-1-aminium iodide] | – | –

— patent publication US20240101584A1, “TARGETED DELIVERY OF 1,2,4,5 TETRAOXANE COMPOUNDS AND THEIR USES” (Westlake University, priority 2021, published 2024)
